For data set [1] the following is noted: in vivo; cited from earlier work.
For data set [2] the following is noted: cited from earlier work.
The next data set relates to P. falciparum DD2. As to the kind of experiment: Checkerboard assay (FIC index). Conditions: for MIC: Plasmodium falciparum, DD2, each component used alone. Type of data set: cell-based, Plasmodium falciparum. On the procedure:
Checkerboard assay. The anti-malaria activity of Luohan fruit extracts and Stevia leaf extracts in vitro were determined and predicted using the malarial strain P. falciparum DD2. Samples are mixed into 1:2 series dilutions and the FIC index (FICI) is calculated. (Rand, K. H., Houck, H. J., Brown, P. et al. “Reproducibility of the microdilution checkerboard method for antibiotic synergy,” Antimicrobial Agents & Chemotherapy (1993) 37:613-5; Eliopoulos, G. M., Moellering R. C. in Antibiotics in Laboratory Medicine, ed. Lorian V (Williams & Wilkins, Baltimore, Md., 1991), pp 432-492; Ghannoum, M. A., Fu, Y., Ibrahim, A. S., Mortara, L. A., Shafiq, M. C., Edwards, J. E., Jr., Criddle, R. S. Antimicrob. Agents Chemother. (1995) 39:2459-2465; Barchiesi, F., DiFrancesco, L. F., Scalise, G. “In Vitro Activities of Terbinafine in Combination With Fluconazole and Itraconazole Against Isolates of Candida albicans With Reduced Susceptibility to Azoles,” Antimicrob. Agents Chemother. (1997) 41:1812-1814. Each of the foregoing references are incorporated herein by reference in their entirety.)
To determine whether the readout of the combination therapy is additive, synergistic, or indifferent, the FIC index (FICI) was calculated by the use of the checkerboard assay. The FICI represents the sum of the FICs of each drug tested, where the FIC (fractional inhibitory concentration) is determined for each drug by dividing the MIC of each drug when used in combination by the MIC of each drug when used alone. FICI=(MICdrug A in combination/MICdrug A alone)+(MICdrug B in combination/MICdrug B alone). The preassumptions are that (i) testing uses concentrations separated by a factor of 2, and (ii) one-dilution-step MIC changes are within the range of experimental error. Other sophisticated methods have also been used; for example, a contour surface-plot methodology was used in characterizing the nature of three antifungal agents in combinations using various concentrations of each agent.

Data set [3] relates to Plasmodium falciparum multidrug resistant strain (MDR) 7G8. As to the kind of experiment: In vitro growth inhibition of P. falciparum 7G8, infection rate by Giemsa-stained smear (Example 1B). Conditions: 7G8, read-out: Antimalarial activity, IC50. In kind it is cell-based. The text has this: The Plasmodium falciparum multidrug resistant strain (MDR) 7G8, (obtained from the Malaria Research and Reference Reagent Resource Centre (MR4), Manassas, Va., USA), was in vitro cultured in RMPI 1640 cell culture medium (supplemented with 10% Human Serum) with PCV (packed cell volume) at 5%. The P. falciparum was cell synchronized by adding 5% of D-sorbitol, and synchronized cells were then spread on culture plates after achieving ring form phase, with an initial infection rate of 1% and PCV at 5%.
(§1) 10 μl active ingredient solution plus 90 μl P. falciparum culture medium were spread on each well.

In a further data set the test system is P. falciparum clone Dd2. Kind of data set: Malaria SYBR Green I-based fluorescence method, clone Dd2. In kind it is cell-based. Conditions: Plasmodium falciparum, DD2, 72 h, read-out: In vitro susceptibility (IC50) Dd2. On the procedure:
(§2) 1803-1806, Vol. 48, No. 5, with slight modifications. Drug solutions were serially diluted with culture medium and distributed to asynchronous parasite cultures in 96-well plates in quadruplicate to achieve 0.2% parasitaemia with a 2% haematocrit in a total volume of 100 μL. The plates were then incubated for 72 h at 37° C. Following incubation, 100 μL of lysis buffer with 0.2 μL/mL SYBR Green 1 was added to each well. The plates were incubated at 37° C. for 1 h in the dark and then placed in a 96-well fluorescence plate reader (Multilabel HTS Counter; PerkinElmer, Waltham, Mass., USA) with excitation and emission wavelengths at 497 nm and 520 nm, respectively, for measurement of fluorescence. The 50% inhibitory concentration (IC50) was determined by non-linear regression analysis of logistic dose—response curves using GraphPad Prism software (GraphPad Software Inc., La Jolla, Calif.). This example serves as a comparative method.
(§3) Next, the assay portion of procedure of Example 1C was performed using Coartem as a positive control.

Another data set concerns P. falciparum clone 3D7. As to the kind of experiment: Malaria SYBR Green I-based fluorescence method, clone 3D7. In kind it is cell-based. Conditions: Plasmodium falciparum, 3D7, 72 h, read-out: In vitro susceptibility (IC50) 3D7. On the procedure: as §2, §3
The subject of data set [4] is P. falciparum multi-drug resistant (MDR) clone Dd2. As to the kind of experiment: In vitro growth inhibition IC50, Giemsa-stained smears (Example 1D), clone Dd2. In kind it is cell-based. To be noted: Plasmodium falciparum. Here is the method: (§4) The Luo Han Guo general extract (Sample 8) was prepared by extraction of dried Luo Han fruit with hot water as in Example 1A, and then fractionated with EtOAc and n-butanol respectively as in Example 1A to yield 3 fractions corresponding to Samples 5a-7a. Samples 6a-7a also correspond to “compound B” and “compound A” respectively.
(§5) The P. falciparum was cell synchronized by adding 5% of D-sorbitol, and synchronized cells were then spread on culture plates after achieving ring form phase, with an initial infection rate of 1% and PCV at 5%.
as §1
(§6) Drug-sensitive (DS) clone 3D7 and multi-drug resistant (MDR) clone Dd2 of Plasmodium falciparum, obtained from the Malaria Research and Reference Reagent Resource Centre (MR4), Manassas, Va., USA, were maintained continuously in blood group O+ human erythrocytes and 10% human serum in a gas mixture consisting of 7% CO2, 5% O2 and 88% N2.
(§7) In vitro inhibitory concentration assays. P. falciparum clones 3D7 and Dd2 were maintained continuously in blood group O+ human erythrocytes and 10% human serum in a gas mixture consisting of 7% CO2, 5% O2, and 88% N2, synchronized by serial treatments with 5% D-sorbitol. […]

For data set [5], the system named is P. falciparum drug-sensitive (DS) clone 3D7. As to the kind of experiment: In vitro growth inhibition IC50, Giemsa-stained smears (Example 1D), clone 3D7. In kind it is cell-based. Conditions: Plasmodium falciparum. Here is the method: as §4, §5, §1, §6, §7
Data set [6] has as its system P. falciparum drug-sensitive clone 3D7. As to the kind of experiment: In vitro inhibitory concentration assay, light microscopy of Giemsa-stained smears (Example 1C), clone 3D7. Type of data set: cell-based. Conditions: Plasmodium falciparum, 10^−4 g/L, read-out: Percent of Inhibition (%, Mean ± SD) 3D7. On the procedure:
(§8) Parasite cultivation. Drug-sensitive clone 3D7 and multi-drug resistant (MDR) clone Dd2 of Plasmodium falciparum, obtained from the Malaria Research and Reference Reagent Resource Centre (MR4), Manassas, Va., USA, were maintained continuously in blood group O+ human erythrocytes and 10% human serum in a gas mixture consisting of 7% CO2, 5% O2 and 88% N2.
(§9) The stock solutions of Example 1A, and CQ employed as the positive control (prepared as a 10 mM stock solution in PBS), were stored at −20° C. Each working solution was freshly prepared in cell culture medium.
(§10) In vitro inhibitory concentration assays. P. falciparum clones 3D7 and Dd2 were maintained continuously in blood group O+ human erythrocytes and 10% human serum in a gas mixture consisting of 7% CO2, 5% O2, and 88% N2, synchronized by serial treatments with 5% D-sorbitol. In vitro growth inhibition of ring-stage-parasitized erythrocytes starting at 1% parasitemia and 2.5% hematocrit was determined by light microscopy of Giemsa-stained smears.

In data set [7] the test system is P. falciparum multi-drug resistant (MDR) clone Dd2. Kind of data set: In vitro inhibitory concentration assay, light microscopy of Giemsa-stained smears (Example 1C), clone Dd2. Type of data set: cell-based. Conditions: Plasmodium falciparum, 10^−4 g/L, read-out: Percent of Inhibition (%, Mean ± SD) Dd2. Here is the method:
as §8, §9, §10

The next data set deals with P. falciparum infection. As to the kind of experiment: Expected oral treatment of patients, standard blood film monitoring. Type of data set: in vivo, Plasmodium falciparum. Conditions: patient, aqueous composition, total daily dosage up to about 500 mg of each active.
The conditions of data set [8]: cited from earlier work; for half-life (t1/2): in humans.
Where [9] appears, read: Example 2E (control): artemesinin with Reb A.

Consider seven molecules from patent US9943558B2, “Compositions and methods for treating multi-drug resistant malaria” (Febris Bio-Tech Limited, priority 2011, dated 2018).

In brackets after ≈: the same amount, converted by molar mass. Where two headings read alike, the source gives them in different places.

With `CCCCN(CCCC)CC(O)c1cc(Cl)cc2c1-c1ccc(Cl)cc1/C2=C/c1ccc(Cl)cc1` (racemic) [lumefantrine, (+/−)-2-dibutylamino-1-[2,7-dichloro-9-(4-chlorobenzylidene)-9,11-fluoren-4-yl]ethanol], in [1], the elimination entry is “eliminated more slowly”.

On to `CO[C@H]1O[C@@H]2O[C@@]3(C)CC[C@H]4[C@H](C)CC[C@@H]([C@H]1C)[C@@]24OO3` [Artemether, artemether], for which the elimination result in data set [1] is given as “rapidly eliminated”.

For orientation: MIC means the least concentration at which growth counts as inhibited. `C[C@@H]1CC[C@H]2[C@@H](C)C(=O)O[C@@H]3O[C@@]4(C)CC[C@@H]1[C@]32OO4` [Artemisinin, reference compound]: the solubility in water entry in data set [2] is on record as “poorly soluble in water”. In addition, the MIC in combination in the data set with P. falciparum DD2 (setting [9]) worked out at 0.0081 nM. Besides, the minimal inhibitory concentration (MIC) in the data set with P. falciparum DD2 amounted to 0.13 nM.

By IC50 is commonly meant the concentration that gives 50% inhibition. For the molecule `CCN(CC)CCCC(C)Nc1ccnc2cc(Cl)ccc12` (centres unmarked) [CQ, chloroquine], the IC50 in [3] was determined as 0.264 ± 0.012 µg/mL (≈ 0.825 µM); with P. falciparum clone Dd2 it was 22.1 ± 1.96 nM; in the data set with P. falciparum clone 3D7, 1.63 ± 0.1 nM; in data set [4] (DD2, read-out: IC50, av. Dd2 (MDR)), 22.6 ± 0.82 nM; in data set [5] (3D7, read-out: IC50, av. 3D7 (DS)), 1.37 ± 0.12 nM.

One may read the inhibition as how much of the control response was suppressed. As to `C=C1C[C@@]23CC[C@H]4[C@@](C)(CCC[C@@]4(C)C(=O)OC4OC(CO)C(O)C(O)C4O)[C@@H]2CC[C@]1(OC1OC(CO)C(O)C(OC2OC(CO)C(O)C(O)C2O)C1OC1OC(CO)C(O)C(O)C1O)C3` (stereo partly drawn) [Sample No. 1, (14α)-13-[(2-O-β-D-glucopyranosyl-3-O-β-D-glucopyranosyl-β-D-glucopyranosyl)oxy]kaur-16-en-19-oic acid β-D-glucopyranosyl ester], the inhibition at 0.1 µg/mL in data set [6] was 41.3%; in data set [7], 56.1 ± 1.36%. Moreover, the solubility in water result in data set [2] is on record as “fully water soluble”. In the data set with P. falciparum infection, the “expected time until P. falciparum infection is suppressed or inhibited” value fell in the range of 3 to 7 days. The figures for the MIC in combination in the data set with P. falciparum DD2 (Example 2D: compound A with Reb A) and with P. falciparum DD2 (setting [9]) were 94 nM and 376 nM, respectively. Moreover, the MIC in the data set on P. falciparum DD2 is 376 nM. The IC50 was 376 ± 12.4 nM in [4] (clone Dd2 (MDR), Giemsa smear, read-out: IC50, av. Dd2 (MDR)) and 220 ± 10.2 nM in data set [5] (clone 3D7 (DS), Giemsa smear, read-out: IC50, av. 3D7 (DS)). In [8] (at the dosages used herein), the “adverse hemodynamic effects or blood glucose lowering effects” value was “does not exhibit adverse hemodynamic effects or blood glucose lowering effects”. Further, the “half-life (t1/2)” value in data set [8] is recorded as “approximately 14 hours”.

As for `C[C@H](CC[C@@H](OC1OC(COC2OC(CO)C(O)C(O)C2O)C(O)C(O)C1OC1OC(CO)C(O)C(O)C1O)C(C)(C)O)[C@H]1CC[C@@]2(C)[C@@H]3CC=C4[C@@H](CC[C@H](OC5OC(COC6OC(CO)C(O)C(O)C6O)C(O)C(O)C5O)C4(C)C)[C@]3(C)[C@H](O)C[C@]12C` (stereo partly drawn) [mogroside V, (3β,9β,10α,11α,24R)-3-[(6-O-β-D-glucopyranosyl-β-D-glucopyranosyl)oxy]-11,25-dihydroxy-9-methyl-19-norlanost-5-en-24-yl-O-β-D-glucopyranosyl-(1-2)-O-[β-D-glucopyranosyl-(1-6)]-β-D-glucopyranoside], the solubility in water entry in data set [2] is reported as “fully water soluble”.

In the case of `C=C1C[C@@]23CC[C@H]4[C@@](C)(CCC[C@@]4(C)C(=O)O[C@@H]4O[C@H](CO)[C@@H](O)[C@H](O)[C@H]4O)[C@@H]2CC[C@]1(O[C@@H]1O[C@H](CO)[C@@H](O)[C@H](O)[C@H]1O[C@@H]1O[C@H](CO)[C@@H](O)[C@H](O)[C@H]1O)C3` [stevioside], the “half-life (t1/2)” value in data set [8] is reported as “approximately 14 hours”.
